Assay results reported in ChEMBL document CHEMBL1201862, “PubChem BioAssay data set” (2004).
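Each compound was tested at five concentrations against cells in 96-well plates for 48 hours. GI50: concentration for 50% inhibition of growth.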 Active and inactive are the calls of the source. Rule as the data show it: active = GI50 up to about 1.1 µM and inactive = higher.

Tests used:
Experiment in all cases: growth of human tumour cells (NCI), 48 h
[1] = tested on: UACC-62
[2] = tested on: SR
[3] = tested on: HCT-15
[4] = tested on: BT-549
[5] = tested on: PC-3
[6] = tested on: U-251
[7] = tested on: NCI-H23
[8] = tested on: OVCAR-5
[9] = tested on: 786-0
[10] = tested on: SK-MEL-2
[11] = tested on: TK-10
[12] = tested on: HOP-62
[13] = tested on: SW-620
[14] = tested on: SN12C
[15] = tested on: OVCAR-3
[16] = tested on: LOX IMVI
[17] = tested on: EKVX
[18] = tested on: MCF7
[19] = tested on: HCT-116
[20] = tested on: DU-145
[21] = tested on: ACHN
[22] = tested on: SK-MEL-28
[23] = tested on: COLO 205
[24] = tested on: M14
[25] = tested on: UO-31
[26] = tested on: Malme-3M
[27] = tested on: SK-OV-3
[28] = tested on: NCI-H226
[29] = tested on: NCI-H522
[30] = tested on: NCI-H460
[31] = tested on: Hs-578T
[32] = tested on: MDA-MB-435
[33] = tested on: SNB-19
[34] = tested on: MOLT-4
[35] = tested on: SK-MEL-5
[36] = tested on: MDA-N
[37] = tested on: UACC-257
[38] = tested on: OVCAR-4
[39] = tested on: HT-29
[40] = tested on: RXF 393
[41] = tested on: IGROV-1
[42] = tested on: SF-295
[43] = tested on: T47D
[44] = tested on: SNB-75
[45] = tested on: MDA-MB-231
[46] = tested on: NCI/ADR-RES
[47] = tested on: A549
[48] = tested on: SF-268
[49] = tested on: HOP-92
[50] = tested on: OVCAR-8
[51] = tested on: KM12
[52] = tested on: K562
[53] = tested on: CAKI-1
[54] = tested on: HL-60
[55] = tested on: CCRF-CEM
[56] = tested on: SF-539
[57] = tested on: HCC 2998
[58] = tested on: RPMI-8226

Compound: CN(Cc1cnc2nc(N)nc(N)c2n1)c1ccc(C(=O)NC(CCC(=O)NC(CC(P(=O)(O)O)P(=O)(O)O)C(=O)O)C(=O)O)cc1 (stereo not drawn)
- GI50 [1]: > 100 µM (inactive)
- GI50 [2]: > 100 µM (inactive)
- GI50 [3]: > 100 µM
- GI50 [4]: > 100 µM (inactive)
- GI50 [5]: > 100 µM (inactive)
- GI50 [6]: > 100 µM (inactive)
- GI50 [7]: > 100 µM (inactive)
- GI50 [8]: > 100 µM (inactive)
- GI50 [9]: > 100 µM (inactive)
- GI50 [10]: > 100 µM (inactive)
- GI50 [11]: > 100 µM (inactive)
- GI50 [12]: > 100 µM (inactive)
- GI50 [13]: > 100 µM (inactive)
- GI50 [14]: > 100 µM (inactive)
- GI50 [15]: > 100 µM (inactive)
- GI50 [16]: > 100 µM (inactive)
- GI50 [17]: > 100 µM (inactive)
- GI50 [18]: > 100 µM (inactive)
- GI50 [19]: > 100 µM (inactive)
- GI50 [20]: > 100 µM (inactive)
- GI50 [21]: > 100 µM (inactive)
- GI50 [22]: > 100 µM (inactive)
- GI50 [23]: > 100 µM (inactive)
- GI50 [24]: > 100 µM (inactive)
- GI50 [25]: > 100 µM (inactive)
- GI50 [26]: > 100 µM (inactive)
- GI50 [27]: > 100 µM (inactive)
- GI50 [28]: > 100 µM (inactive)
- GI50 [29]: > 100 µM (inactive)
- GI50 [30]: > 100 µM (inactive)
- GI50 [31]: > 100 µM (inactive)
- GI50 [32]: > 100 µM (inactive)
- GI50 [33]: > 100 µM (inactive)
- GI50 [34]: > 100 µM (inactive)
- GI50 [35]: > 100 µM (inactive)
- GI50 [36]: > 100 µM (inactive)
- GI50 [37]: > 100 µM (inactive)
- GI50 [38]: > 100 µM (inactive)
- GI50 [39]: > 100 µM (inactive)
- GI50 [40]: > 100 µM (inactive)
- GI50 [41]: > 100 µM (inactive)
- GI50 [42]: > 100 µM (inactive)
- GI50 [43]: > 100 µM (inactive)
- GI50 [44]: > 100 µM (inactive)
- GI50 [45]: > 100 µM (inactive)
- GI50 [46]: > 100 µM (inactive)
- GI50 [47]: > 100 µM (inactive)
- GI50 [48]: > 100 µM (inactive)
- GI50 [49]: > 100 µM (inactive)
- GI50 [50]: > 100 µM (inactive)

Compound: N#Cc1c(-c2ccccc2)[nH]c2ccc(Cl)cc2c1=O
- GI50 [1]: 57.3 µM (inactive)
- GI50 [2]: > 100 µM (inactive)
- GI50 [3]: > 100 µM
- GI50 [4]: 22.5 µM (inactive)
- GI50 [5]: > 100 µM (inactive)
- GI50 [6]: 28.2 µM (inactive)
- GI50 [7]: 92.5 µM (inactive)
- GI50 [8]: > 100 µM (inactive)
- GI50 [9]: 30.5 µM (inactive)
- GI50 [10]: 16.7 µM (inactive)
- GI50 [11]: 29.7 µM (inactive)
- GI50 [12]: 25.8 µM (inactive)
- GI50 [13]: > 100 µM (inactive)
- GI50 [14]: > 100 µM (inactive)
- GI50 [51]: > 100 µM (inactive)
- GI50 [15]: > 100 µM (inactive)
- GI50 [16]: > 100 µM (inactive)
- GI50 [17]: > 100 µM (inactive)
- GI50 [18]: > 100 µM (inactive)
- GI50 [19]: 81.8 µM (inactive)
- GI50 [20]: > 100 µM (inactive)
- GI50 [21]: > 100 µM (inactive)
- GI50 [52]: > 100 µM (inactive)
- GI50 [22]: > 100 µM (inactive)
- GI50 [23]: > 100 µM (inactive)
- GI50 [24]: > 100 µM (inactive)
- GI50 [25]: 22.4 µM (inactive)
- GI50 [26]: > 100 µM (inactive)
- GI50 [53]: 1.62 µM (inactive)
- GI50 [27]: 25.1 µM (inactive)
- GI50 [54]: > 100 µM (inactive)
- GI50 [28]: 38 µM (inactive)
- GI50 [29]: 26.4 µM (inactive)
- GI50 [55]: > 100 µM (inactive)
- GI50 [30]: > 100 µM (inactive)
- GI50 [31]: 34.8 µM (inactive)
- GI50 [32]: > 100 µM (inactive)
- GI50 [33]: 22.9 µM (inactive)
- GI50 [56]: > 100 µM (inactive)
- GI50 [34]: > 100 µM (inactive)
- GI50 [35]: > 100 µM (inactive)
- GI50 [57]: > 100 µM (inactive)
- GI50 [36]: > 100 µM (inactive)
- GI50 [37]: > 100 µM (inactive)
- GI50 [38]: > 100 µM (inactive)
- GI50 [39]: > 100 µM (inactive)
- GI50 [40]: 20.7 µM (inactive)
- GI50 [58]: > 100 µM (inactive)
- GI50 [41]: 63.1 µM (inactive)
- GI50 [42]: 22.4 µM (inactive)
- GI50 [43]: > 100 µM (inactive)
- GI50 [44]: 44.7 µM (inactive)
- GI50 [45]: 21.7 µM (inactive)
- GI50 [46]: 92.9 µM (inactive)
- GI50 [47]: 13 µM (inactive)
- GI50 [48]: 36.1 µM (inactive)
- GI50 [49]: 22.9 µM (inactive)
- GI50 [50]: 86.9 µM (inactive)
